ChEMBL document CHEMBL5576084, “Development of chromone-thiazolidine-2,4-dione Knoevenagel conjugates as apoptosis inducing agents” (Bioorg Med Chem Lett, 2024)
pIC50: −log10 of the molar value.

Tests used:
SK-MEL-28 = assay: Cytotoxicity against human SK-MEL-28 cells assessed as inhibition of cell growth incubated for 48 hrs by MTT assay; type: functional, cell-based; details: SK-MEL-28, 48 h
A549 = assay: Cytotoxicity against human A549 cells assessed as inhibition of cell growth incubated for 48 hrs by MTT assay; type: functional, cell-based; details: A549, 48 h
HepG2 = assay: Cytotoxicity against human HepG2 cells assessed as inhibition of cell growth incubated for 48 hrs by MTT assay; type: functional, cell-based; details: HepG2, 48 h
MCF7 = assay: Cytotoxicity against human MCF7 cells assessed as inhibition of cell growth incubated for 48 hrs by MTT assay; type: functional, cell-based; details: MCF7, 48 h
HCT-116 = assay: Cytotoxicity against human HCT-116 cells assessed as inhibition of cell growth incubated for 48 hrs by MTT assay; type: functional, cell-based; details: HCT-116, 48 h
[1] = Cytotoxicity against HEK293 cells assessed as inhibition of cell growth incubated for 48 hrs by MTT assay; type: toxicity, cell-based; details: human

For `O=C(CN1C(=O)S/C(=C\c2coc3cc(Br)ccc3c2=O)C1=O)c1ccccc1`, the pIC50 (SK-MEL-28) was under 5.00, the pIC50 (A549) was 5.06 and the pIC50 (HepG2) was under 5.00. For the same compound, the pIC50 (MCF7) was under 5.00, the pIC50 (HCT-116) was under 5.00 and the IC50 at 48 h [1] was 21.1 µM.

With `Cc1ccc2occ(/C=C3\SC(=O)N(CC(=O)c4ccccc4)C3=O)c(=O)c2c1` the pIC50 (SK-MEL-28) was under 5.00, the pIC50 (A549) was under 5.00 and the pIC50 (HepG2) was under 5.00. For the same compound, the pIC50 (MCF7) was under 5.00, the pIC50 (HCT-116) was under 5.00 and the IC50 at 48 h [1] was 13.6 µM.

For `O=C(CN1C(=O)S/C(=C\c2coc3ccccc3c2=O)C1=O)c1ccc(Cl)c(Cl)c1`, the pIC50 (SK-MEL-28) was under 5.00, the pIC50 (A549) was under 5.00 and the pIC50 (HepG2) was under 5.00. The pIC50 (MCF7) was 5.04, the pIC50 (HCT-116) was under 5.00 and the IC50 at 48 h [1] was 19.6 µM.

In the case of `O=C(CN1C(=O)S/C(=C\c2coc3ccccc3c2=O)C1=O)c1ccc(Cl)cc1`, the pIC50 (SK-MEL-28) was under 5.00, the pIC50 (A549) was under 5.00 and the pIC50 (HepG2) was 4.91. It also gave a pIC50 (MCF7) of 5.06, a pIC50 (HCT-116) of under 5.00 and an IC50 at 48 h [1] of 25 µM.

With `Cc1ccc(C(=O)CN2C(=O)S/C(=C\c3coc4ccccc4c3=O)C2=O)cc1` the pIC50 (SK-MEL-28) was under 5.00, the pIC50 (A549) was 5.06 and the pIC50 (HepG2) was under 5.00. It also gave a pIC50 (MCF7) of under 5.00, a pIC50 (HCT-116) of under 5.00 and an IC50 at 48 h [1] of 28.2 µM.

Compound `O=C(CN1C(=O)S/C(=C\c2coc3cc(Br)ccc3c2=O)C1=O)c1ccc(Br)cc1` has a pIC50 (SK-MEL-28) of under 5.00, a pIC50 (A549) of under 5.00 and a pIC50 (HepG2) of under 5.00. The pIC50 (MCF7) was under 5.00, the pIC50 (HCT-116) was under 5.00 and the IC50 at 48 h [1] was 23.6 µM.

Compound `Cc1ccc2occ(/C=C3\SC(=O)N(CC(=O)c4ccc(Cl)cc4)C3=O)c(=O)c2c1` has a pIC50 (SK-MEL-28) of under 5.00, a pIC50 (A549) of 5.20 and a pIC50 (HepG2) of under 5.00. It also gave a pIC50 (MCF7) of 5.05, a pIC50 (HCT-116) of under 5.00 and an IC50 at 48 h [1] of 15.2 µM.

`Cc1ccc2occ(/C=C3\SC(=O)N(CC(=O)c4ccc(F)cc4)C3=O)c(=O)c2c1` gave a pIC50 (SK-MEL-28) of under 5.00, a pIC50 (A549) of under 5.00 and a pIC50 (HepG2) of under 5.00. The pIC50 (MCF7) was under 5.00, the pIC50 (HCT-116) was under 5.00 and the IC50 at 48 h [1] was 15.2 µM.

Work on `O=C(CN1C(=O)S/C(=C\c2coc3ccc(Br)cc3c2=O)C1=O)c1ccccc1` yielded a pIC50 (SK-MEL-28) of under 5.00, a pIC50 (A549) of under 5.00 and a pIC50 (HepG2) of under 5.00. It also gave a pIC50 (MCF7) of under 5.00, a pIC50 (HCT-116) of under 5.00 and an IC50 at 48 h [1] of 13.2 µM.

`O=C(CN1C(=O)S/C(=C\c2coc3cc(Br)ccc3c2=O)C1=O)c1ccc(Cl)cc1` showed a pIC50 (SK-MEL-28) of under 5.00, a pIC50 (A549) of 5.08 and a pIC50 (HepG2) of under 5.00. For the same compound, the pIC50 (MCF7) was under 5.00, the pIC50 (HCT-116) was under 5.00 and the IC50 at 48 h [1] was 18.1 µM.

For `O=C(CN1C(=O)S/C(=C\c2coc3ccccc3c2=O)C1=O)c1ccc(Br)cc1`, the pIC50 (SK-MEL-28) was under 5.00, the pIC50 (A549) was 5.11 and the pIC50 (HepG2) was under 5.00. The pIC50 (MCF7) was under 5.00, the pIC50 (HCT-116) was under 5.00 and the IC50 at 48 h [1] was 21.1 µM.
